Target: T1, human recombinant Glo-I (rhGlo-I) (Homo sapiens, UniProt Q04760)
T1 construct: purchased R&D Systems
T1 sequence (Q04760 2-184 limits assumed): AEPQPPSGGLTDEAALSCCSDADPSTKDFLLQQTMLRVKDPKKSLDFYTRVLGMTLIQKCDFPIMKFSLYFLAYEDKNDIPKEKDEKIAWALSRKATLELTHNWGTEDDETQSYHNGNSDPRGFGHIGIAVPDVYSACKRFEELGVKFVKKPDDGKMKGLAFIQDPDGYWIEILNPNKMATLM
Test: In vitro Glo-I enzyme inhibition assay (UV-Vis, 240 nm)
Assay type: biochemical
Settings: for IC50: rhGlo-I, triplicates, 240 nm, 200 s, 25 °C, pH 7.0–7.2
Protocol: A total of twelve synthesized multi-arm benzene derivatives of 1,2,3-selenadiazole and 1,2,3-thiadiazole by M. Al-Smadi et al. were selected for the present study. The in vitro inhibitory activity of the compounds against the human Glo-I enzyme was measured using double-beam UV-Vis spectrophotometer (Biotech Engineering Management Co. Ltd., UK).
The Glo-I inhibitory activity was determined as reported previously. Briefly, human recombinant Glo-I (rhGlo-I), provided by R&D Systems® Corporation, was reconstituted by dissolving 0.5 mg/mL of it in sterile, deionized water before storing at –70 °C. The tested compounds were dissolved in DMSO to 10 mM stock solution. The assay buffer was prepared by mixing 0.1 M sodium phosphate dibasic solution and 0.1 M sodium phosphate monobasic solution with a pH of 7.0–7.2. The substrate mixture was prepared by mixing a suitable volume of 0.1 M sodium phosphate assay buffer with 100 mM methylglyoxal solution and 100 mM reduced glutathione. Finally, the tested compounds were mixed with the assay buffer, substrate solution mixture, and the Glo-I enzyme in a cuvette at an appropriate tested concentration. Each compound was tested in triplicates at λmax = 240 nm for 200 s at 25 °C.

IC50	activity relative to selenium containing counterpart (fold difference in Glo-I inhibitory activity, sulfur vs selenium analogue)	SMILES
3000 ± 150 nM	–	c1c(COc2ccc(-c3csnn3)cc2)cc(COc2ccc(-c3csnn3)cc2)cc1COc1ccc(-c2csnn2)cc1 [Compound 8]
2670 ± 310 nM	–	c1cc(-c2csnn2)ccc1OCc1c(COc2ccc(-c3csnn3)cc2)c(COc2ccc(-c3csnn3)cc2)c(COc2ccc(-c3csnn3)cc2)c(COc2ccc(-c3csnn3)cc2)c1COc1ccc(-c2csnn2)cc1 [Compound 12]
2400 ± 130 nM	eight times more active	c1cc(-c2csnn2)ccc1OCc1cc(COc2ccc(-c3csnn3)cc2)c(COc2ccc(-c3csnn3)cc2)cc1COc1ccc(-c2csnn2)cc1 [Compound 10]

SMILES	IC50	activity relative to selenium containing counterpart (fold difference in Glo-I inhibitory activity, sulfur vs selenium analogue)
c1cc(-c2c[se]nn2)ccc1OCc1c(COc2ccc(-c3c[se]nn3)cc2)c(COc2ccc(-c3c[se]nn3)cc2)c(COc2ccc(-c3c[se]nn3)cc2)c(COc2ccc(-c3c[se]nn3)cc2)c1COc1ccc(-c2c[se]nn2)cc1 [Compound 11]	8300 ± 560 nM	–
